System: Phakopsora pachyrhizi
Experiment: Phakopsora test (soybeans)/protective
Format: in vivo, Phakopsora pachyrhizi on soybeans
Conditions: protective spray on young soybean plants, inoculated 1 day after spraying, evaluated 10 days after inoculation
Description: Phakopsora Test (Soybeans)/Protective Solvent: 28.5 parts by weight of acetone Emulsifier: 1.5 parts by weight of polyoxyethylene alkyl phenyl ether To produce a suitable preparation of active compound, 1 part by weight of active compound or active compound combination is mixed with the stated amounts of solvent and emulsifier, and the concentrate is diluted with water to the desired concentration. To test for protective activity, young plants are sprayed with the preparation of active compound or active compound combination at the stated rate of application. After the spray coating has dried on, the plants are placed in a greenhouse at a temperature of approximately 23° C. and a relative atmospheric humidity of approximately 70%. 1 day after spraying, the plants are inoculated with an aqueous spore suspension of the causal agent of soybean rust (Phakopsora pachyrhizi). The plants are then placed in a greenhouse at approximately 20° C. and a relative atmospheric humidity of approximately 80%. The test is evaluated 10 days after the inoculation. 0% means an efficacy which corresponds to that of the control, while an efficacy of 100% means that no disease is observed.

Structure (SMILES) | Efficacy in % (rate of application 10 ppm) [%] | Efficacy in % (rate of application 0.5 ppm) [%]
Cn1cc(C(=O)Nc2ccc(F)cc2-c2ccc(Cl)c(Cl)c2)c(C(F)F)n1 [(I-2) Bixafen, N-(3′,4′-dichloro-5-fluoro-1,1′-biphenyl-2-yl)-3-(difluoromethyl)-1-methyl-1H-pyrazole-4-carboxamide] | 50 | –
OC(Cc1ccccc1Cl)(Cn1nc[nH]c1=S)C1(Cl)CC1 (centres unmarked) [(III-1) Prothioconazole, Prothioconazole] | – | 50

Source: patent US20120035165A1, “Use of fungicidal compound compositions for controlling certain rust fungi” (Bayer CropScience AG, priority 2008, published 2012)
